Earlier results in patent publication US20240325430A1, “MULTIPLE FOLATE FORMULATION AND USE THEREOF” (JAYMAC PHARMACEUTICAL LLC, priority 2012, published 2024).

Tested on: hydrocephalic Texas rats
Settings: injected into hydrocephalic Texas rats during fetal development; J Neuropathol Exp Neurol 2009

## Nc1nc2ncc(CNc3ccc(C(=O)N[C@@H](CCC(=O)O)C(=O)O)cc3)nc2c(=O)[nH]1 [folic acid]
  incidence of hydrocephalus: significant increase
